# Experiments:
# [1] = tested on: microtubule; conditions: cited from earlier work
# [2] = tested on: patient prostate tumors; assay: Doxorubicin accumulation and penetration in tumor histocultures (fluorescence microscopy); assay type: in vitro ADME, human; conditions: for Tissue concentration at 72 hr: in µM; for distribution of fluorescence signal: 5 or 20 μM
# Protocol: (§1) In this example, the penetration of doxorubicin into multilayer tissue was monitored using prostate tumor specimens obtained from human cancer patients and using the human prostate PC3 xenograft tumor maintained in athymic mice. Doxorubicin was monitored by fluorescence.
# (§2) Histocultures of tumors were incubated with 1, 5 or 20:M doxorubicin as described in Example 1. […] At 4, 12, 24, 36, 48, and 72 hours, histocultures were collected and processed as described in Example 1. The fluorescence emitted by doxorubicin was visualized using fluorescence microscopy. The excitation and emission wavelengths were 546 nm and 565 nm, respectively. Microscopic images were captured using a Charged Couple Device (CCD) camera and the captured images were analyzed using Optimas image analysis software (Silver spring, MD). The doxorubicin concentration in tissues was quantified using standard curves (each curve contained six data points), established as follows. Samples for the standard curves were prepared by applying known amounts of doxorubicin in solution to microscope sections of blank dog prostate tissue. The standard doxorubicin solutions (2:1) were pipetted on 10:m-thick blank tissue sections, and carefully spread over a surface area of approximately 1.5–2 cm^2. The standard slides were scanned using the same conditions as the samples. The average fluorescence intensity per area were measured. Plots of the fluorescence readings against the applied doxorubicin concentrations in the standard curve samples provided the standard curves used to quantify the doxorubicin in the actual samples. For the latter, at least three sections were used to obtain the mean value in one tumor, and at least three tumors were used to obtain the mean value at each time point.
# (§3) The rate of doxorubicin penetration into patient and PC3 xenograft tumors was monitored using fluorescence microscopy.
# [3] = tested on: human prostate tumor histocultures; conditions: cited from earlier work
# [4] = tested on: PC3 xenograft tumor; assay: Doxorubicin accumulation and penetration in tumor histocultures (fluorescence microscopy); assay type: in vitro ADME, human; conditions: for Tissue-to-medium concentration ratio at 72 hr / Tissue concentration at 72 hr: PC3 xenograft tumor; for Tissue concentration at 72 hr: in µM; for distribution of fluorescence signal: 5 or 20 μM
# Protocol: The androgen-independent human prostate PC3 cells were maintained as xenograft tumors in male nude mice according to the previously published procedures (Pretlow et al., 1993; Nagabhushan et al., 1996). Briefly, minced tumor tissue mixed with the same volume of Matrigel was implanted into both flanks of the nude mice at 0.3 ml per site. Tumors were harvested when they reached a size of 1 g at about 1.5 to 2 months after implantation.
# as §1, §2, §3
# [5] = tested on: PC3 xenograft tumor; assay: Tumor cell density after doxorubicin treatment; assay type: cell-based, human; conditions: 5 or 20 μM
# Protocol: The fractions of stromal tissue and tumor cells in each histoculture were measured using image analysis. Briefly, stromal and tumor cells of a 100× magnification field were outlined with the computer mouse. The sizes of each of these regions were determined via image analysis by counting the number of pixels in the region. […] Apoptotic cells were determined based on morphological changes in tumor cells such as chromatin condensation and margination, disappearance of nucleoli, formation of membrane blebs, apoptotic bodies and/or cell shrinkage (Kerr J F R et al. (1994) Cancer 73:2013). […] For each tumor piece, 50 to 100 images were processed, and the fractions of the tumor represented by tumor cells, stromal tissue, and interstitial space were calculated.
# [6] = tested on: patient prostate tumors and PC3 xenograft tumors; assay: Doxorubicin concentration versus distance from tumor periphery (FIG. 4); assay type: in vitro ADME, human
# Protocol: as §2, with “The standard doxorubicin solutions (2:1) were pipetted on 10:m-thick blank tissue sections, and carefully spread over a surface area of approximately 1.5–2 cm^2. The standard slides were scanned using the same conditions as the samples.” left out, “For the latter, at least three sections were used to obtain the mean value in one tumor, and at least three tumors were used to obtain the mean value at each time point.” left out
# FIG. 4 summarizes the drug concentration in tumor tissue, expressed as tissue-to-medium concentration ratio, as a function of the distance from the periphery of the tumor histocultures. […]
compound,measurement,setting,value
CC(=O)O[C@H]1C(=O)[C@@]2(C)[C@H]([C@H](OC(=O)c3ccccc3)[C@]3(O)C[C@H](OC(=O)[C@H](O)[C@@H](NC(=O)c4ccccc4)c4ccccc4)C(C)=C1C3(C)C)[C@]1(OC(C)=O)CO[C@@H]1C[C@@H]2O [7-epitaxol],microtubule binding affinity compared with paclitaxel,[1],similar
COc1cccc2c1C(=O)c1c(O)c3c(c(O)c1C2=O)C[C@@](O)(C(=O)CO)C[C@@H]3O[C@H]1C[C@H](N)[C@H](O)[C@H](C)O1 [doxorubicin],Tissue-to-medium concentration ratio at 72 hr,[2]; 1 μM in culture medium,29.2 ± 7.8
same,Tissue concentration at 72 hr,[2]; 1 μM in culture medium,29.2 ± 7.8
same,drug distribution,"[2]; 1 μM, by 72 hr",distributed evenly throughout the patient tumors
same,Tissue-to-medium concentration ratio at 72 hr,[2]; 5 μM in culture medium,31.6 ± 14.2
same,Tissue concentration at 72 hr,[2]; 5 μM in culture medium,158 ± 70.9
same,Tissue-to-medium concentration ratio at 72 hr,[2]; 20 μM in culture medium,36.9 ± 26.5
same,Tissue concentration at 72 hr,[2]; 20 μM in culture medium,739 ± 531
same,distribution of fluorescence signal,[2]; after 24 hr,evenly distributed throughout the histoculture
same,distribution of fluorescence signal,[2]; first 12 hr,confined to the periphery
same,IC50,"[3]; human prostate tumor histocultures, read-out: IC50, inhibition of tumor cell growth",61 nM
same,CC50,"[3]; human prostate tumor histocultures, read-out: LC50, tumor cell death",2100 nM
same,concentration sufficient to produce 50% cell death,[3]; patient prostate tumors,2.1 :M
same,concentration sufficient to produce 90% cell death,[3]; patient prostate tumors,4.2 :M
same,concentration sufficient to produce 90% inhibition of tumor cell proliferation,[3]; patient prostate tumors,0.4 :M
same,PC3 xenograft-to-patient tumor concentration ratio at 72 hr,[4]; 1 μM in culture medium,1.15
same,PC3 xenograft-to-patient tumor concentration ratio at 72 hr,[4]; 5 μM in culture medium,1.35
same,PC3 xenograft-to-patient tumor concentration ratio at 72 hr,[4]; 20 μM in culture medium,1.5
same,Tissue-to-medium concentration ratio at 72 hr,[4]; 1 μM in culture medium,33.6 ± 3.9
same,Tissue concentration at 72 hr,[4]; 1 μM in culture medium,33.6 ± 3.9
same,Tissue-to-medium concentration ratio at 72 hr,[4]; 5 μM in culture medium,42.7 ± 3.3
same,Tissue concentration at 72 hr,[4]; 5 μM in culture medium,213 ± 16.4
same,Tissue-to-medium concentration ratio at 72 hr,[4]; 20 μM in culture medium,55.3 ± 9.6
same,Tissue concentration at 72 hr,[4]; 20 μM in culture medium,1107 ± 193
same,drug distribution,"[4]; xenograft tumor, 1 μM, at 72 hr",remained confined to the periphery
same,distribution of fluorescence signal,"[4]; xenograft tumor, after 36 hr",evenly distributed
same,distribution of fluorescence signal,"[4]; xenograft tumor, first 24 hr",confined to the periphery
same,cell density in the periphery of the tumor,[5],decreased with time
same,equilibrium between far end (325 μm) and periphery (75 μm) concentration,[6]; 1 μM,did not reach equilibrium
same,time at which equilibrium between far end and periphery was attained,[6]; 5 and 20 μM,36 h

# — patent US7217735B1, “Methods and compositions for enhancing delivery of therapeutic agents to tissues” (priority 1999, dated 2007)
